“Also recorded” adds a separate entry of the source.
How the values were obtained:
[1] = tested on: arteriosclerotic plaques (aortic arch, a. carotis, abdominal aorta); assay: In vivo gamma camera scintigraphy of WHHL-rabbits; design: species or system WHHL-rabbit
Protocol: (§1) The order of the dissected tissues for each B1 and B2 from left to right: thoracic aorta, right denuded a. carotis and left untreated a. carotis.
(§2) 2 mCi (1 ml) of the analog to b) labelled […]was applied to a narcotized WHHL-rabbit (Rompun/Ketavet 1:2) via an ear vein. WHHL-rabbits reveal due a missing or defect LDL receptor high LDL levels in blood and therefore show spontaneous arteriosclerotic vascular changes. During the experimental time span of 5 h after application, static photographs with various exposure times and positions were taken with a gamma camera (Elcint SP4 HR). 5 h after application the rabbit was killed and both an autoradiography and a Sudan III dyeing of the aorta were performed.

[2] = tested on: plaque as well as non-plaque regions of the aorta; assay: Quantitative autoradiography and Sudan-III-dyeing of the removed aorta of WHHL-rabbits after i.v. application; design: species or system WHHL-rabbit; settings: in vivo
Protocol: 74 MBq (2 mCi) of the respective compound according to the invention was applied via an ear vein in a WHHL-rabbit. 5 h p.i. the rabbit was killed and both a quantitative autoradiography and a Sudan-III-dyeing of the removed aorta were performed. The so-determined accumulation of the respective compounds according to the invention in the different tissues is listed in Table 1.
as §2, with “performed. The arteriosclerotic plagues in the region of the aortic arch of the WHHL-rabbits could be depicted with 10 min p.i. in vivo. […] The enrichment factor between the normal and arteriosclerotic wall regions was between 6 and 9, depending on the plaque formation (Sudan III dyeing).” for “performed.”

[3] = tested on: denuded (arteriosclerotic) right a. carotis; assay: Scintigram and autoradiogram of a New Zealand rabbit with right a. carotis denuded by Fogarty-catheter; assay type: in vivo; settings: right a. carotis denuded four weeks earlier, 0.5 h after i.v. application of 74 MBq
Text: as §1

Row | Substance | Enrichment factor Plaque / Non-plaque [2] | also measured
1 | Tc-99m-Complex of Asp-Gly-Gly-Cys-Gly-Cys-Phe-(D-Trp)-Leu-Asp-Ile-Ile-Trp [Example 3 c] | – | enrichment activity in vivo in left lateral scintigram ([1]; WHHL-rabbit versus New Zealand control rabbit, 0.5 h after i.v. application of 74 MBq, aortic arch, left a. carotis, abdominal aorta): observable enrichment activity in vivo; also recorded: enrichment activity is visible in vivo
2 | Tc-99m-Complex of N-(4-hydroxycarboxy-1-oxo-3-thia-but-1-yl)-Cys-(D-Trp)-Leu-Asp-Ile-Ile-Trp [Example 5 c] | 9 | –
3 | Tc-99m-Complex of N-(4-hydroxycarboxy-1-oxo-3-thia-but-1-yl)-Cys-His-Leu-Asp-Ile-Ile-Trp [Example 6 c] | 5 | –
4 | Tc-99m-Complex of N-(4-hydroxycarboxy-1-oxo-3-thia-but-1-yl)-Cys-Phe-(D-Trp)-Leu-Asp-Ile-Ile-Trp [Example 4 c] | 14 | –
5 | ^99mTc-Complex of Asp-Gly-Gly-Cys-Gly-Cys-D-Trp-Leu-Asp-Ile-Ile-Trp [Example 2 c] | – | in vivo detection of the arteriosclerotic right a. carotis in anterior scintigram [3]: could be detected in vivo
6 | ^99mTc-Complex of Asp-Gly-Gly-Cys-Gly-Cys-His-Leu-Asp-Ile-Ile-Trp [Example 1 c] | – | time p.i. at which arteriosclerotic plaques in the region of the aortic arch could be depicted in vivo ([1]; WHHL-rabbit, 2 mCi via ear vein, gamma camera): 10 min

Reference: patent publication US6342201B1, “Complex compounds for diagnosis of vascular diseases” (Institut for Diagnostikforschung GmbH an der Freien …, priority 1994, dated 2002)
